Source: ChEMBL document CHEMBL1130790, “Peptidyl human heart chymase inhibitors. 2. Discovery of highly selective difluoromethylene ketone derivatives with Glu at P3 site” (Bioorg Med Chem Lett, 1998)
Where a SMILES comes first, the peptide text is derived from it. The star is where a group is joined. Cbz = O=C(OCc1ccccc1)*

Columns and labels:
Chymase = biological target: T1, Chymase (Homo sapiens, UniProt P23946); test: Compound was evaluated for inhibitory activity against human heart chymase (HHC)
T1 sequence (P23946 whole entry): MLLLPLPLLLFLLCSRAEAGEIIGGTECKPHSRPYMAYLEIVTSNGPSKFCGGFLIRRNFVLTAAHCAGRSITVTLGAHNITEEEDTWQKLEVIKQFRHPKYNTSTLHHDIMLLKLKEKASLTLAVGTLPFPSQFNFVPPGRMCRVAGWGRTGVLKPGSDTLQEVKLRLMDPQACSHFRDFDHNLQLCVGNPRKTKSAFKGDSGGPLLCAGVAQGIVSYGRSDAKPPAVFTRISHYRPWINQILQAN

[1] = Selectivity ratio of Bovine chymotrypsin (BCT-Ki) to human heart chymase (HHC-Ki)

Ki (Chymase) [nM]	Ratio [1]	Structure (SMILES)
6	> 16700	CC(C)(C)OC(=O)NC(CCC(=O)O)C(=O)N1CCC[C@H]1C(=O)NC(Cc1ccccc1)C(=O)C(F)(F)C(=O)Nc1cc(C(=O)O)cs1 (stereo partly specified)
27.5	38	CC(C)(C)OC(=O)NC(CCC(=O)O)C(=O)N1CCC[C@H]1C(=O)NC(Cc1ccccc1)C(=O)C(F)(F)C(=O)Nc1cccc(S(N)(=O)=O)c1 (stereo partly specified)
3		CC[C@H](C)[C@H](NC(=O)OCc1ccccc1)C(=O)N[C@@H](CCC(=O)O)C(=O)N1CCC[C@H]1C(=O)N[C@@H](Cc1ccccc1)C(=O)OC (Cbz-IEPF-OMe)
5.6		CC(C)C(NC(=O)OC(C)(C)C)C(=O)N1CCC[C@H]1C(=O)NC(Cc1ccccc1)C(=O)C(F)(F)C(=O)Nc1cccc(C(=O)O)c1 (stereo partly specified)
36.6	2730	CC(C)(C)OC(=O)NC(CC(=O)O)C(=O)N1CCC[C@H]1C(=O)NC(Cc1ccccc1)C(=O)C(F)(F)C(=O)Nc1cccc(C(=O)O)c1 (stereo partly specified)
3.9	332	CC(C)(C)OC(=O)NC(CCC(=O)O)C(=O)N1CCC[C@H]1C(=O)NC(Cc1ccccc1)C(=O)C(F)(F)C(=O)Nc1cccc(C(=O)O)c1 (stereo partly specified)
22.8		CCCCNS(=O)(=O)c1cccc(NC(=O)C(F)(F)C(=O)C(Cc2ccccc2)NC(=O)[C@@H]2CCCN2C(=O)C(CCC(=O)O)NC(=O)OC(C)(C)C)c1 (stereo partly specified)
6.7	590	CC(C)(C)OC(=O)NC(CCC(=O)O)C(=O)N1CCC[C@H]1C(=O)NC(Cc1ccccc1)C(=O)C(F)(F)C(=O)Nc1cccc(CC(=O)O)c1 (stereo partly specified)
21.1	58	CC(C)(C)OC(=O)NC(CCC(=O)O)C(=O)N1CCC[C@H]1C(=O)NC(Cc1ccccc1)C(=O)C(F)(F)C(=O)Nc1cccc(C(N)=O)c1 (stereo partly specified)
14.2		CC(C)(C)OC(=O)NC(CCC(=O)O)C(=O)N1CCC[C@H]1C(=O)NC(Cc1ccccc1)C(=O)C(F)(F)C(=O)Nc1cc(C(=O)O)c2ccccc2c1 (stereo partly specified)
